# Numbered stars: 1 amine (or outer) side, 2 acyl side, 3 side chain; on linkers, the order of the positions; unused ones are H or OH. Square brackets hold non-standard residues; d marks the D form. Peptide text beside a SMILES is read from it. N(2-(2-PhOPh)Et)Gly = O=C(O)CNCCc1ccccc1Oc1ccccc1; Gly(N-3,5-(OMe)2-Ph) = COc1cc(NCC(=O)O)cc(OC)c1; X1 = COc1ccc([C@H](C)N(CC(=O)[*:2])[*:1])cc1; N((CH2)3OiPr)Gly = CC(C)OCCCNCC(=O)O
# Assays:
# [1] = biological target: β-catenin:TCF4 interaction (Homo sapiens, UniProt P35222); assay: biochemical
# Protocol: (§1) We next characterized the dose response curves for compound 13 in the Wnt and AR luciferase reporters. The linear version of 13 (linear 13: NH2-|N-mpp, N-dmp, N-ipp, N-Smpe, N-Smpe, D-Ala|-OH) was used as a control compound. […] To test direct binding, we pre-formed dynamic light scattering (DLS) with β-catenin in the presence of vehicle, compound 13, and α-cyclodextrin. […] HEK293 cells were transiently transfected with a plasmid expressing full length, myc-tagged TCF4. After 48 h treatment with either vehicle (DMSO) or 10 µM 13, cells were lysed and myc-TCF4 protein was immunoprecipitated.
# [2] = system: LNCaP-abl cells; conditions: read-out: IC50 proliferation, LNCaP-abl; 5 days of treatment
# Protocol: (§2) To test the effect of 13 in a model of prostate cancer, we used the LNCaP-abl and LNCaP-95 cell lines. These cell lines were derived from androgen-sensitive LNCaP cells, and passaged in androgen-deprived media to mimic the development of castration resistance in patient tumors[54],[55]. We first isolated mRNA from LNCaP-abl and LNCaP-95 cells treated with vehicle, 10 µM 13 and linear 13 for 24 h to check the expression of endogenous Wnt and AR target genes (Fig. 4a). […] AR-V7 is particularly challenging to target as most AR antagonists target the ligand binding domain. […] To check if the changes in Wnt and AR target gene expression translated into effects on growth, the viability of LNCaP-abl and LNCaP-95 cells was determined after 5 days of treatment (Fig. 4b).
# (§3) Data are presented as mean and SD (n = 3) of three independent experiments (a) or representative of three independent experiments (b, c).
# (§4) LNCaP-abl and LNCaP-95 cells were cultured in indicator free RPMI 1640 media (Life) supplemented with 10% charcoal stripped FBS, 1% pennicillin/streptomycin, and 1% L-Glutamine. […] Both were measured using the ONE-Glo detection kit (Promega) and data is standardized to CellTiter-Fluor (Promega) viability readings to account for potential variations in well to well cell number. […] Total protein concentration in cell lysates were determined using Pierce Rapid Gold BCA Protein Assay Kit (Thermo). […]
# [3] = system: LNCaP-95 cells; conditions: read-out: IC50 proliferation, LNCaP-95; 5 days of treatment
# Protocol: as §2, §3, §4
# [4] = system: A549 (lung adenocarcinoma) cells; assay: 2D proliferation (CellTiter-Fluor viability), A549; type: cell-based; conditions: Wnt-independent cell line, 5 days
# [5] = system: LNCaP-abl and LNCaP-95 cells; assay: RT-qPCR of Wnt and AR target genes; type: cell-based; conditions: 10 µM, 24 h
# Protocol: as §2, §3
# LNCaP-abl and LNCaP-95 cells were cultured in indicator free RPMI 1640 media (Life) supplemented with 10% charcoal stripped FBS, 1% pennicillin/streptomycin, and 1% L-Glutamine. HEK-293 Cells were cultured in DMEM media (Life) supplemented with 10%FBS and 1% pennicillin/streptomycin. A549 and U2OS cells were cultured in RPMI 1640 media (Life) and McCoy’s 5 A modified media (Life), respectively, both supplemented with 10%FBS and 1% pennicillin/streptomycin. LNCaP-abl, and LNCaP-95 cell lines were generous gifts from Z. Culig (Innsbruck Medical University, Austria) and J. Isaacs (Johns Hopkins University, Baltimore, MD), respectively. Cell lines were authenticated by STR profiling (Genetica Cell Line Testing; Burlington, NC). A549 and U2OS were purchased from ATCC (product numbers CCL-185 and HTB-96). Cell lines were routinely screened for mycoplasma. Luciferase assays were conducted using stably transfected TOP-flash and 3xARE LNCaP-abl cell lines. For the Wnt pathway, TOP-Flash LNCaP-abl cells were treated with 1 nM siAPC (a 1:1:1 mix of Ambion Silencer Silect siAPC RNA, ID#s s1433, s1434, s1435) for 24 h and seeded into 384-well plates at 5000 cells/well, followed by 24 h of treatment with compound. For the AR-pathway, 3xARE LNCaP-abl cells were seeded into 384-well plates at 5000 cells per well, treated for 48 h with compound, with the addition of R1881 for the final 8 h. Both were measured using the ONE-Glo detection kit (Promega) and data is standardized to CellTiter-Fluor (Promega) viability readings to account for potential variations in well to well cell number. Control Wnt inhibitors were purchased from Sigma with the exception of PRI-724 which was purchased from Selleckchem. Co-immunoprecipitation was carried out using HEK293 cells transfected with either myc-TCF (addgene #32738) or myc-TCF dominant negative (addgene #32739) followed by 48 h of treatment with compound. Cells were lysed using Triton lysis buffer and 1 mg total protein was incubated overnight at 4 C with 40 µl anti-cMyc magnetic beads (Thermo). Total protein concentration in cell lysates were determined using Pierce Rapid Gold BCA Protein Assay Kit (Thermo). The beads were washed 3× with lysis buffer then boiled in 2X sample loading dye.
# [6] = system: U2OS (osteosarcoma) cells; assay: 2D proliferation (CellTiter-Fluor viability), U2OS; type: cell-based; conditions: Wnt-independent cell line, 5 days
# [7] = system: Wnt signaling in zebrafish embryos; conditions: zebrafish, in vivo
# Protocol: To evaluate the efficacy of 13 in vivo, we utilized a Danio rerio (zebrafish) model. […] To test this, BIO was added to zebrafish embryos at 6 hpf with and without 13 as described in Fig. 6a.
# The zebrafish phenotypic assay was conducted using wild-type zebrafish embryos seeded into a 96-well round bottom plate at 4 hpf in 50 µl of Fish Water (60 mg/l sea salt, Instant Ocean, Blacksburg, VA, USA) supplemented with 1 mg per L Methylene Blue (Sigma-Aldrich). The embryos were not dechorionated. At 50% epiboly, roughly 5.5 hpf, 50 µl of 30 µM 13 or Linear 13 was added. About 30 min later at shield stage, 50 µl of 6 nM (3×) BIO was added. The embryos were then visualized for the presence of eyes and imaged at 30 hpf. Zebrafish embryos were randomly assigned to non-blinded treatment groups, none were excluded. Sample size was determined with a power calculation to achieve statistical significance (alpha = 0.05, beta = 0.2) if only 60% of the fish had developed eyes.
# [8] = biological target: T1, β-catenin (Homo sapiens, UniProt P35222); assay: Dynamic light scattering of β-catenin; type: binding; conditions: 10 µM compound vs 1% DMSO vehicle
# T1 construct: His6-β-catenin armadillo domain, AA134-668; made in house; host or cells: E. coli BL21 DL3 (NEB)
# T1 sequence (P35222 134-668): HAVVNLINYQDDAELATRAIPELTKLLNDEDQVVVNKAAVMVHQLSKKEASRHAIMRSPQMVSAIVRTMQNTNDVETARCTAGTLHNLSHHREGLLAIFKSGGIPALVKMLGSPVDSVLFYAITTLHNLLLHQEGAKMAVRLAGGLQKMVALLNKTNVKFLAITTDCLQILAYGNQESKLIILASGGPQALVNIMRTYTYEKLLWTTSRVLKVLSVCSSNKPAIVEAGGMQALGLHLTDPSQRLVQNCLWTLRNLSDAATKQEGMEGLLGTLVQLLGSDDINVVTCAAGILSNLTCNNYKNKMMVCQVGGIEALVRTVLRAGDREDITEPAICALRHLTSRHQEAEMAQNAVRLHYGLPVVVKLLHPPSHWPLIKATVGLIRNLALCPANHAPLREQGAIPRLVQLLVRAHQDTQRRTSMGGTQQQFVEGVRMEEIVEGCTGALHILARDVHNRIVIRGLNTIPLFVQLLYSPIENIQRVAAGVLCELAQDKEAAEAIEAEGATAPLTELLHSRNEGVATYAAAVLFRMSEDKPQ
# Protocol: as §1
compound,measurement,setting,value
"COc1ccc([C@H](C)N2CC(=O)N[C@H](C)C(=O)N(CCc3ccccc3Oc3ccccc3)CC(=O)N(c3cc(OC)cc(OC)c3)CC(=O)N(CCCOC(C)C)CC(=O)N([C@@H](C)c3ccc(OC)cc3)CC2=O)cc1 [Compound 13] (cyclo([dA][N(2-(2-PhOPh)Et)Gly][Gly(N-3,5-(OMe)2-Ph)][N((CH2)3OiPr)Gly][X1][X1]))",IC50,[1],5440 nM
same,IC50,[2],195 nM
same,IC50,[3],782 nM
same,Effect on proliferation of A549 cells,[4],no effect
same,AR mRNA,[5],decreased
same,AR-V7 transcription,[5],decreased
same,Cyclin D1 mRNA,[5],decreased
same,E-cadherin transcription,[5],increased
same,FKBP5 mRNA,[5],decreased
same,PSA mRNA,[5],decreased
same,cMYC mRNA,[5],decreased
same,Effect on proliferation of U2OS cells,[6],no effect
same,Harm to embryo development,[7],does not otherwise harm embryo development
same,Shift in measured hydrodynamic radius of β-catenin (DLS),[8],significant shift
